Results as given in ChEMBL document CHEMBL5325407, “Structure-based development of potent Plasmodium falciparum M1 and M17 aminopeptidase selective and dual inhibitors via S1'-region optimisation” (Eur J Med Chem, 2023).
≈ marks a conversion by molar mass, not a printed value. Calls of active or inactive are those of the source. The calls are words filed in the database; no cut-off is given here.

Assays:
[1] = (§1) Inhibition of C-terminal 6-His tagged Plasmodium falciparum M1 aminopeptidase (195 to 1085 residues) expressed in Escherichia coli BL21(DE3) cells using H-Leu-NHMec as substrate assessed as apparent inhibition constant preincubated for 10 mins followed by substrate addition by spectrofluorimetric analysis; settings: read-out: Ki(app)
[2] = as §1, with “M17” for “M1”, “(85” for “(195”, “605” for “1085”, “BL21 (DE3)” for “BL21(DE3)”; settings: read-out: Ki(app)
[3] = as §1, with “initial” for “apparent”
[4] = tested on: Plasmodium falciparum; assay: Antiplasmodial activity against drug-sensitive Plasmodium falciparum 3D7 infected in Red blood cell assessed as growth inhibition measured after 72 hrs by LDH assay; format: functional, organism-based; settings: 3D7, Erythrocyte
[5] = molecular target: Histone deacetylase 1 (Homo sapiens) (UniProt Q13547); assay: Inhibition of HDAC1 (unknown origin)
Sequence of Histone deacetylase 1 (Homo sapiens) (Q13547 whole entry): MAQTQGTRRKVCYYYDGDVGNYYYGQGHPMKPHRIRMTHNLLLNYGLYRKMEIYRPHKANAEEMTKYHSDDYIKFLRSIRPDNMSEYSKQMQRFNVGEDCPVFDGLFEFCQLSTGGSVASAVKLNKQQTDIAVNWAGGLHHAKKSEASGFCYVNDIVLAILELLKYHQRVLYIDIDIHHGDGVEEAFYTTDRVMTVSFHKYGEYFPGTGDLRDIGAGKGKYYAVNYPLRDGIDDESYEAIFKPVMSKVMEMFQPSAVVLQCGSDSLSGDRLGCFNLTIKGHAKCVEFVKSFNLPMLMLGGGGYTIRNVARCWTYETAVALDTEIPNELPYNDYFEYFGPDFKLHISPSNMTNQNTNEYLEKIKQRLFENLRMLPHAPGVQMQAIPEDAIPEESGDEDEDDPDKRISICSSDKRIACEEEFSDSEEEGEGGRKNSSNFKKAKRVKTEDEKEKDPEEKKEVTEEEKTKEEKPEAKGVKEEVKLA

[6] = molecular target: Histone deacetylase 2 (Homo sapiens) (UniProt Q92769); assay: Inhibition of HDAC2 (unknown origin)
Sequence of Histone deacetylase 2 (Homo sapiens) (Q92769 whole entry): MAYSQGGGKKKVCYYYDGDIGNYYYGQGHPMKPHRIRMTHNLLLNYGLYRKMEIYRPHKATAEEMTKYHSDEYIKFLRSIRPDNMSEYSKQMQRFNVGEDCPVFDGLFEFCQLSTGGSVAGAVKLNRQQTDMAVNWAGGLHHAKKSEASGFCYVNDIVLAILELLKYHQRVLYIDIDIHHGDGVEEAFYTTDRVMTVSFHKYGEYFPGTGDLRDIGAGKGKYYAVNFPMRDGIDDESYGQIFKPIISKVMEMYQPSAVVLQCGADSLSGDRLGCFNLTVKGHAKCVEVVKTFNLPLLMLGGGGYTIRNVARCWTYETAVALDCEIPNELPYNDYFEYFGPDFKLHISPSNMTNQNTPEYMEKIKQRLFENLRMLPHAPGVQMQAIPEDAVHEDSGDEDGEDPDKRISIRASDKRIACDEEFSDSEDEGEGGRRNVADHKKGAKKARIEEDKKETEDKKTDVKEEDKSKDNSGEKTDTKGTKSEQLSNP

[7] = molecular target: Histone deacetylase 5 (Homo sapiens) (UniProt Q9UQL6); assay: Inhibition of HDAC5 (unknown origin)
Sequence of Histone deacetylase 5 (Homo sapiens) (Q9UQL6 whole entry): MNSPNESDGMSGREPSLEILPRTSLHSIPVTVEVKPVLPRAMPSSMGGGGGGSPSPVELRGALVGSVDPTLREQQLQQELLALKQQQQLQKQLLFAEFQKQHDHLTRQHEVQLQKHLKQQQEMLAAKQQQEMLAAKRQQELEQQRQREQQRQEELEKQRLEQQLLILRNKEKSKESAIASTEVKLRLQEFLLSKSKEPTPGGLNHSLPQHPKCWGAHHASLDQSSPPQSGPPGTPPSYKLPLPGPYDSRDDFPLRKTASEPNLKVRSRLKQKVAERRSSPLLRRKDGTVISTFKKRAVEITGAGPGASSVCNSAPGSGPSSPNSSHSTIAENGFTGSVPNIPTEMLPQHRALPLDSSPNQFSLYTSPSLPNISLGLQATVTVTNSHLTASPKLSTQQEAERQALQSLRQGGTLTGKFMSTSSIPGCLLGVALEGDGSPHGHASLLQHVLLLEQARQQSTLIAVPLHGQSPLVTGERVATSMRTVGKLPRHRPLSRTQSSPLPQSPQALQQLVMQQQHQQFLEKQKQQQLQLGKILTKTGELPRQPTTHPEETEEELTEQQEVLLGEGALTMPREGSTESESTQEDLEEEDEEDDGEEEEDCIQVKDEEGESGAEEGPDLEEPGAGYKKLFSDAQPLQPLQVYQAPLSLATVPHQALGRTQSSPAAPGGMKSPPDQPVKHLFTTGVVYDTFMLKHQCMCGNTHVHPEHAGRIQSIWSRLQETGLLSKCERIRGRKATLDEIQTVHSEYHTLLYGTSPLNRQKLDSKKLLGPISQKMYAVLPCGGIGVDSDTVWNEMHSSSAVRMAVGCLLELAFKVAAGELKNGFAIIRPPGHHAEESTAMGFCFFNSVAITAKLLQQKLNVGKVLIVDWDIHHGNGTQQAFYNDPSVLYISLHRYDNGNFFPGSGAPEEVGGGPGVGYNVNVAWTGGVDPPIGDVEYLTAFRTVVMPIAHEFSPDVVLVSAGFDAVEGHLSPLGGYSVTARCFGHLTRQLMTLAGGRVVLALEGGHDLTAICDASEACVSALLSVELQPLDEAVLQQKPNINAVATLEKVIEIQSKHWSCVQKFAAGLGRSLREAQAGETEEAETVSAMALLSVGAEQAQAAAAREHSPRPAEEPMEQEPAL

[8] = molecular target: T1, Histone deacetylase 7 (Homo sapiens) (UniProt Q8WUI4); assay: Inhibition of HDAC7 (unknown origin)
T1 sequence (whole entry): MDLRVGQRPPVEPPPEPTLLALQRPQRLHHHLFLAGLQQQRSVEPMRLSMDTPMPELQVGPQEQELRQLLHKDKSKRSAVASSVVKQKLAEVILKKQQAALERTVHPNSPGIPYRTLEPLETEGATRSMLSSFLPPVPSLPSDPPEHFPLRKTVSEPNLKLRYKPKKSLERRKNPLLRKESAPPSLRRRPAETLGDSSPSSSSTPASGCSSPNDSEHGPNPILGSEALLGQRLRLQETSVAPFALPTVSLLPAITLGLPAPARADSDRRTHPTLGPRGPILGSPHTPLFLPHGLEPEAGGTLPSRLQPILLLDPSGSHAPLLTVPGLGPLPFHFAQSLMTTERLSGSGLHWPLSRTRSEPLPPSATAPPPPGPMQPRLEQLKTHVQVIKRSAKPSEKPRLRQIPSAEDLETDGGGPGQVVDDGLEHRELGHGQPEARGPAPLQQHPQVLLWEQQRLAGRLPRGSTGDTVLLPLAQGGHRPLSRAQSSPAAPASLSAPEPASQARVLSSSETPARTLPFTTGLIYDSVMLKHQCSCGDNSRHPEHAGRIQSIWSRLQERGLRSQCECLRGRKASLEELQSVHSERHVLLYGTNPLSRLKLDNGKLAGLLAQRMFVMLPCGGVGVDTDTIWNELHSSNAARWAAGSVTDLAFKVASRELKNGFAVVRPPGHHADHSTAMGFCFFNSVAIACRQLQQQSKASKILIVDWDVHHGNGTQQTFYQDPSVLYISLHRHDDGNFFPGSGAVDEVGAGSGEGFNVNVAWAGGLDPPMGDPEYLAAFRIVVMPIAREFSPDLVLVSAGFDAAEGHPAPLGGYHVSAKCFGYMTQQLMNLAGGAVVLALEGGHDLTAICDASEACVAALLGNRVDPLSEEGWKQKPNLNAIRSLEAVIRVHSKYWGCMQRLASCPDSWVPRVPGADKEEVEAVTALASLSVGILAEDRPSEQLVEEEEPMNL

[9] = molecular target: T2, Histone deacetylase 8 (Homo sapiens) (UniProt Q9BY41); assay: Inhibition of HDAC8 (unknown origin)
T2 sequence (whole entry): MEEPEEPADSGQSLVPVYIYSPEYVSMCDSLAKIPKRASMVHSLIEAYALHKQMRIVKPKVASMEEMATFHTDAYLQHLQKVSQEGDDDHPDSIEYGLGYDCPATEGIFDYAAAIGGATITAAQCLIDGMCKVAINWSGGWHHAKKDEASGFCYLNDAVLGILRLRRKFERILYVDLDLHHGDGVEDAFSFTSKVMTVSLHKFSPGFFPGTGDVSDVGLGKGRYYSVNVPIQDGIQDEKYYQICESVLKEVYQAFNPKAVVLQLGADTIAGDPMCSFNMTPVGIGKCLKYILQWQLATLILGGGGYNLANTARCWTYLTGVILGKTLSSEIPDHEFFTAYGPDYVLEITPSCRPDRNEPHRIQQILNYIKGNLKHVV

[10] = molecular target: Histone deacetylase 9 (Homo sapiens) (UniProt Q9UKV0); assay: Inhibition of HDAC9 (unknown origin)
[11] = molecular target: T3, Polyamine deacetylase HDAC10 (Homo sapiens) (UniProt Q969S8); assay: Inhibition of HDAC10 (unknown origin)
T3 sequence (whole entry): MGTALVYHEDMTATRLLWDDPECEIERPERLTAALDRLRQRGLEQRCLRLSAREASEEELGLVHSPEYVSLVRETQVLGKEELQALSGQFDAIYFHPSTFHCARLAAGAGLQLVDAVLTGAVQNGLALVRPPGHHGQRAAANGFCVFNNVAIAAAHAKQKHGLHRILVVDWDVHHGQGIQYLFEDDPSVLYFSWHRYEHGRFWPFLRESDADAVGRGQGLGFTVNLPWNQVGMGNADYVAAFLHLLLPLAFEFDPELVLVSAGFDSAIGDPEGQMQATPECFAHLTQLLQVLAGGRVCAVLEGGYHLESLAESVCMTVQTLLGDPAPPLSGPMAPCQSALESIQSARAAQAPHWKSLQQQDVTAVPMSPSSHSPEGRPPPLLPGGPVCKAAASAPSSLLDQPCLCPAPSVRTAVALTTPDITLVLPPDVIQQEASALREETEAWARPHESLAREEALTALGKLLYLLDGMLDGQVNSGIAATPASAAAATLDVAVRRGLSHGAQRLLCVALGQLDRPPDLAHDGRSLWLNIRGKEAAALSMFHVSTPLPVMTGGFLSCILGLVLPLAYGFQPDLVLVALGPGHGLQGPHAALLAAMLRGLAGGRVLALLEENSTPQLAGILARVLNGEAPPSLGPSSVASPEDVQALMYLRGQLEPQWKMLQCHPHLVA

[12] = molecular target: Endoplasmic reticulum aminopeptidase 1 (Homo sapiens) (UniProt Q9NZ08); assay: Inhibition of ERAP1 (unknown origin)
Sequence of Endoplasmic reticulum aminopeptidase 1 (Homo sapiens) (Q9NZ08 whole entry): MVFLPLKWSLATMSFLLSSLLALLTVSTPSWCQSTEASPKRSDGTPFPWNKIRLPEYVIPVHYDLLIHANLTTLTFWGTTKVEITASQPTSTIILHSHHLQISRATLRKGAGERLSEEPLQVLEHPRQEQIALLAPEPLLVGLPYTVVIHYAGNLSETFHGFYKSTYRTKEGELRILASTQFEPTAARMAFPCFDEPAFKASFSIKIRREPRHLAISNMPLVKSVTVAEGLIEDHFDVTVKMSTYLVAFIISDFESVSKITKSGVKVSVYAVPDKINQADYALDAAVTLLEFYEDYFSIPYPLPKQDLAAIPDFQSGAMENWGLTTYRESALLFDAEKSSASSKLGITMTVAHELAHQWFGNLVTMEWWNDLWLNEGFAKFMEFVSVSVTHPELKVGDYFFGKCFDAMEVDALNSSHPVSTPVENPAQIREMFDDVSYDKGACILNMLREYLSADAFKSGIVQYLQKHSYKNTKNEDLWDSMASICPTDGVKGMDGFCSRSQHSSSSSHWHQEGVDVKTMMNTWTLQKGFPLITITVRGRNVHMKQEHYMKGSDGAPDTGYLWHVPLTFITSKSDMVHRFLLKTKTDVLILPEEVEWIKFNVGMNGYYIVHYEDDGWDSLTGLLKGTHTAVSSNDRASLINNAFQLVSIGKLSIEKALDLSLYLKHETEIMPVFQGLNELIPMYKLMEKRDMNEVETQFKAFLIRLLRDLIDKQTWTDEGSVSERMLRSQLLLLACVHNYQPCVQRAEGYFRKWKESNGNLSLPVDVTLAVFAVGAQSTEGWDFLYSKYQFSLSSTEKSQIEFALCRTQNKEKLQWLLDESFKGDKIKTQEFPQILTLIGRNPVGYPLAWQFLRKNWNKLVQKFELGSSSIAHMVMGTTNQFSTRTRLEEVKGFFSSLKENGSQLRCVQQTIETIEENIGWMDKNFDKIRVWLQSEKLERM

[13] = molecular target: Endoplasmic reticulum aminopeptidase 2 (Homo sapiens) (UniProt Q6P179); assay: Inhibition of ERAP2 (unknown origin)
Sequence of Endoplasmic reticulum aminopeptidase 2 (Homo sapiens) (Q6P179 whole entry): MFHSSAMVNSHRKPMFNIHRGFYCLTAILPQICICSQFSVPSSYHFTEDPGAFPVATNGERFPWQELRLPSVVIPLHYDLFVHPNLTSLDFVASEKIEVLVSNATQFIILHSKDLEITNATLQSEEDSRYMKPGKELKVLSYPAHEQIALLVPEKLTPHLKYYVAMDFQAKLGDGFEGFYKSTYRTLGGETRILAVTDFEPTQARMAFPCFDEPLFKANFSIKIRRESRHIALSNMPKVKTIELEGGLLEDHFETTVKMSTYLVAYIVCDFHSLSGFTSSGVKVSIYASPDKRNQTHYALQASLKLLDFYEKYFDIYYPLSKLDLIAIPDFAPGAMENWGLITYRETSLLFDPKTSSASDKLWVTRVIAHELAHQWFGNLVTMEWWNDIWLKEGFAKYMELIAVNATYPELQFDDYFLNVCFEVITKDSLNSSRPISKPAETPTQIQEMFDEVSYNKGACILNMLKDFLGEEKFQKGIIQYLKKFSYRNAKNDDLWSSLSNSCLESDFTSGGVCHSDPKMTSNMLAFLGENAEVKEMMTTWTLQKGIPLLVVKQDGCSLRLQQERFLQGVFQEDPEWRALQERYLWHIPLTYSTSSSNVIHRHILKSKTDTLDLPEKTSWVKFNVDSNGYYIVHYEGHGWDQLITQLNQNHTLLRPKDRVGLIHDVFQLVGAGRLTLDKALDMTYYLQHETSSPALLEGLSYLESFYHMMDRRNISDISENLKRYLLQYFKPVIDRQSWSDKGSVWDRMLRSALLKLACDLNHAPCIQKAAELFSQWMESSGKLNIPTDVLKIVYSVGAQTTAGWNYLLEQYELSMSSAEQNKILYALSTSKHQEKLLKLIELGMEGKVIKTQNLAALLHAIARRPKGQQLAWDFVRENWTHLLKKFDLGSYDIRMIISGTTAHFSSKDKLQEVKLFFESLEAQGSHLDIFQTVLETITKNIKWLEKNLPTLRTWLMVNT

[14] = molecular target: Neutrophil collagenase (Homo sapiens) (UniProt P22894); assay: Inhibition of MMP8 (unknown origin) at 10 uM relative to control
Sequence of Neutrophil collagenase (Homo sapiens) (P22894 101-467 limits assumed): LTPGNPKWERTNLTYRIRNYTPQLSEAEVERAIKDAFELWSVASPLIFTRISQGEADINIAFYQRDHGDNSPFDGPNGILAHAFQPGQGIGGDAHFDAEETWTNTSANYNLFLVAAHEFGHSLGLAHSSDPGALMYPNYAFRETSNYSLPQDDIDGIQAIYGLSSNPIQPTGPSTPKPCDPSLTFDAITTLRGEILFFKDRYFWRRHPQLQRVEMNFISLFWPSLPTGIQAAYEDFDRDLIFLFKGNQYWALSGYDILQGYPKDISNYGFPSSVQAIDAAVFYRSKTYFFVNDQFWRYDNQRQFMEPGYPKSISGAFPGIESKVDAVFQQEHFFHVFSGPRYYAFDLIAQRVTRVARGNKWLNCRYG

[15] = molecular target: Matrix metalloproteinase-9 (Homo sapiens) (UniProt P14780); assay: Inhibition of MMP9 (unknown origin) at 10 uM relative to control
[16] = molecular target: Collagenase 3 (Homo sapiens) (UniProt P45452); assay: Inhibition of MMP13 (unknown origin) at 10 uM relative to control
[17] = molecular target: Matrix metalloproteinase-15 (Homo sapiens) (UniProt P51511); assay: Inhibition of MMP15 (unknown origin) at 10 uM relative to control
Sequence of Matrix metalloproteinase-15 (Homo sapiens) (P51511 132-669 limits assumed): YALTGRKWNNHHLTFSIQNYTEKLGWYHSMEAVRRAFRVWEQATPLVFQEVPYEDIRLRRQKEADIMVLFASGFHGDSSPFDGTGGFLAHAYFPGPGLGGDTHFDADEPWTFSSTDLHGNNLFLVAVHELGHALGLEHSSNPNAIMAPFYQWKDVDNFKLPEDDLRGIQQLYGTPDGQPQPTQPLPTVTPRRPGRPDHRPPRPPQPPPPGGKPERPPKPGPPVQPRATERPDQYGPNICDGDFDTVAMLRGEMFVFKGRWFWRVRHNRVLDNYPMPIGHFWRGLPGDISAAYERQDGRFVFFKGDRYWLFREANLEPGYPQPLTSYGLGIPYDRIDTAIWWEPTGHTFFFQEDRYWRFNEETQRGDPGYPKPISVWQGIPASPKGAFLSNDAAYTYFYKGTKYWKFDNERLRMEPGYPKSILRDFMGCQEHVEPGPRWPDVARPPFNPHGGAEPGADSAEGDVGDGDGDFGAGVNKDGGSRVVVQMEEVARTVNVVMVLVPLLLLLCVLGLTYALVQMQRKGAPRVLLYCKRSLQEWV

[18] = molecular target: Matrix metalloproteinase-24 (Homo sapiens) (UniProt Q9Y5R2); assay: Inhibition of MMP24 (unknown origin) at 10 uM relative to control
[19] = Kinetic solubility of the compound in 0.01 M HCL at pH 2.0 measured after 30 mins by nephelometric analysis; format: physicochemical; settings: read-out: Kinetic_solubility
[20] = Kinetic solubility of the compound in phosphate buffer at pH 6.5 measured after 30 mins by nephelometric analysis; format: physicochemical; settings: read-out: Kinetic_solubility
[21] = Metabolic stability in human liver microsomes assessed as half life measured for 60 mins in presence of NADPH; format: ADME, Microsome
[22] = Metabolic stability in mouse liver microsomes assessed as half life measured for 60 mins in presence of NADPH; format: ADME, Microsome
[23] = Metabolic stability in human liver microsomes assessed as intrinsic clearance measured per mg protein for 60 mins in presence of NADPH; format: ADME, Microsome; settings: read-out: CLH
[24] = Metabolic stability in mouse liver microsomes assessed as intrinsic clearance measured per mg protein for 60 mins in presence of NADPH; format: ADME, Microsome; settings: read-out: CLH
[25] = tested on: HEK293; assay: Cytotoxicity against HEK293 cells assessed as inhibition of cell growth at 40 uM; format: toxicity, cell-based; settings: human, hek293, 40 µM
[26] = tested on: Plasmodium falciparum; assay: Inhibition of C-terminal 6-His tagged Plasmodium falciparum M17 aminopeptidase (85 to 605 residues) expressed in Escherichia coli BL21 (DE3) cells using H-Leu-NHMec as substrate at less than 500 nM preincubated for 10 mins followed by substrate addition by spectrofluorimetric analysis
[27] = tested on: Plasmodium falciparum; assay: Inhibition of C-terminal 6-His tagged Plasmodium falciparum M1 aminopeptidase (195 to 1085 residues) expressed in Escherichia coli BL21(DE3) cells using H-Leu-NHMec as substrate at less than 500 nM preincubated for 10 mins followed by substrate addition by spectrofluorimetric analysis
[28] = Inhibition of TEV-fused Plasmodium falciparum M1 aminopeptidase (192 to 1085 residues) expressed in Escherichia coli Rosetta 2 (DE3) cells using alanine para-nitroanilide as substrate assessed as apparent inhibition constant measured after 30 mins by spectrophotometric analysis; settings: read-out: Ki(app)
[29] = Inhibition of TEV-fused Plasmodium falciparum M17 aminopeptidase (192 to 1085 residues) expressed in Escherichia coli Rosetta 2 (DE3) cells using alanine para-nitroanilide as substrate assessed as apparent inhibition constant measured after 30 mins by spectrophotometric analysis; settings: read-out: Ki(app)

## O=C(CNc1cc(F)cc(F)c1)NC(C(=O)NO)c1ccc(-c2cc(F)c(F)c(F)c2)cc1 (stereo unspecified)
[1]
  Ki: 131 nM
[2]
  Ki: > 500 nM
[3]
  Ki: 513 nM
[4]
  EC50: 675 nM

## O=C(CNc1ccccc1)NC(C(=O)NO)c1ccc(-c2cc(F)c(F)c(F)c2)cc1 (stereo unspecified)
[1]
  Ki: 66 nM
[2]
  Ki: 57 nM
[4]
  EC50: 170 nM
[5]
  inhibition: inactive
[6]
  inhibition: inactive
[7]
  inhibition: inactive
[8]
  inhibition: inactive
[9]
  inhibition: inactive
[10]
  inhibition: inactive
[11]
  inhibition: inactive
[12]
  inhibition: inactive
[13]
  inhibition: inactive
[14]
  inhibition: > 50%
[15]
  inhibition: > 50%
[16]
  inhibition: > 50%
[17]
  inhibition: > 50%
[18]
  inhibition: > 50%
[19]
  solubility kinetic at 0.5 h: 3.1 µg/mL (≈ 7.22 µM)
[20]
  solubility kinetic at 0.5 h: 1.6 µg/mL (≈ 3.73 µM)
[21]
  half-life: 1.77 h
[22]
  half-life: 1.75 h
[23]
  microsomal CLint: 16 µL/min/mg
[24]
  microsomal CLint: 17 µL/min/mg
[25]
  Activity: Non-Toxic

## O=C(NC(C(=O)NO)c1ccc(-c2cc(F)c(F)c(F)c2)cc1)c1cc2ccccc2[nH]1 (stereo unspecified)
[1]
  Ki: > 500 nM
[2]
  Ki: > 500 nM
[26]
  inhibition: inactive
[27]
  inhibition: inactive

## COc1cccc(NCC(=O)NC(C(=O)NO)c2ccc(Br)cc2)c1 (stereo unspecified)
[1]
  Ki: 72 nM
[2]
  Ki: > 500 nM
[26]
  inhibition: inactive
[4]
  EC50: 102 nM

## COc1ccccc1NCC(=O)NC(C(=O)NO)c1ccc(Br)cc1 (stereo unspecified)
[1]
  Ki: 128 nM
[2]
  Ki: > 500 nM
[26]
  inhibition: inactive
[4]
  EC50: 145 nM

## COc1ccc(NCC(=O)NC(C(=O)NO)c2ccc(Br)cc2)cc1 (stereo unspecified)
[1]
  Ki: 88 nM
[2]
  Ki: > 500 nM
[26]
  inhibition: inactive
[4]
  EC50: 114 nM

## CC(C)(C)CC(=O)NC(C(=O)NO)c1ccc(-c2cc(F)c(F)c(F)c2)cc1 (stereo unspecified)
[28]
  Ki: 269 nM
[29]
  Ki: 101 nM
[4]
  EC50: 63 nM
[19]
  solubility kinetic at 0.5 h: 12.5 µg/mL (≈ 31.7 µM)
[20]
  solubility kinetic at 0.5 h: 12.5 µg/mL (≈ 31.7 µM)
[21]
  half-life: 2.48 h
[22]
  half-life: 1.5 h
